Results reported in ChEMBL document CHEMBL1137489, “Inhibition of choline transport by redox-active cholinomimetic bis-catechol reagents” (Bioorg Med Chem, 2007).
pIC50, pKi: −log10 of the molar value. Active and inactive are the calls of the source. The rule behind the calls is not given here.

Experiments:
[1] = Inhibition of C57BL/6 mouse synaptosomal choline transporter; design: species or system C57BL6
Mus musculus = species on record: Mus musculus; assay: Inhibition of C57BL/6 mouse nicotinic acetyl choline receptor; details: C57BL6

Row | Compound | pIC50 [1] | pKi [1] | Activity (Mus musculus)
1 | C[N+](C)(CCCCCC[N+](C)(C)Cc1cccc(O)c1O)Cc1cccc(O)c1O | 4.12 | 4.14 | Active
2 | C[N+](C)(C)CCCCCCCCCC[N+](C)(C)C [DECAMETHONIUM] | 5.82 |  | 
3 | C[N+](C)(C)CCCCCC[N+](C)(C)C [HEXAMETHONIUM CHLORIDE] | 3.89 |  | 
4 | C[N+](C)(CCCCCCCCCC[N+](C)(C)Cc1cccc(O)c1O)Cc1cccc(O)c1O | 4.68 | 4.51 | Active
